pIC50: −log10 of the molar value.
molecular target: BTK recombinant protein (Homo sapiens (Human), UniProt Q06187); test: Determination of biochemical BTK (Z'-LYTE kinase assay)
Outline: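 Human BTK recombinant kinase (3.32 nM final) was preincubated with compound for 30 min at 4 °C. Reaction ran 1 h at room temperature with Tyr01 FRET peptide (2 μM) and ATP (32 μM); development protease then added. Coumarin 445 nm/fluorescein 520 nm emission ratio (400 nm excitation) gave inhibition across 8 concentrations, 3000–1.37 nM.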

Chain of BTK recombinant protein (Q06187 whole entry): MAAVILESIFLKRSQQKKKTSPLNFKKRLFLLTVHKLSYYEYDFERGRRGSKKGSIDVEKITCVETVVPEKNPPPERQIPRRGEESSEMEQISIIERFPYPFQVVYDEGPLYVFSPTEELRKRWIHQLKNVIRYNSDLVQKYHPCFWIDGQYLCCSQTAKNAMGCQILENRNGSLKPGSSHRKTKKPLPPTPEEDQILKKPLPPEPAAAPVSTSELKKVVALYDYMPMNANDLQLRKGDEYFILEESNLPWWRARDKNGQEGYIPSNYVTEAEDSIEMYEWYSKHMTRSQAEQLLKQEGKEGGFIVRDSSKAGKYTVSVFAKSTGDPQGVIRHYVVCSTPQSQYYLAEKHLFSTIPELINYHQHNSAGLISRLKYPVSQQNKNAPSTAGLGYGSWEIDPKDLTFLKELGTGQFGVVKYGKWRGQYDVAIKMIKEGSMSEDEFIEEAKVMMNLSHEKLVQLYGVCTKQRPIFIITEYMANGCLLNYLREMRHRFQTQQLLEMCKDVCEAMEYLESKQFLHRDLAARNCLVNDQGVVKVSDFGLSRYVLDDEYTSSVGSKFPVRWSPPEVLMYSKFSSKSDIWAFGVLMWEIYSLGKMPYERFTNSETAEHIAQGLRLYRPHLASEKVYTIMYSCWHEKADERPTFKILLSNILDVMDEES

Question: With `C[C@@H]1CN(c2ccc(Nc3cc(-c4ccnc(-n5ccn6c(c(F)c7ccccc76)c5=O)c4CO)cn(C)c3=O)nc2)[C@@H](C)CN1C1COC1` [Compound 59] as the compound, how does the pIC50 read?
Answer: 8.30

Question: With `Cn1cc(Nc2cc(-c3ccnc(-n4ccn5c6c(cc5c4=O)CC(C)(C)C6)c3CO)cn(C)c2=O)nn1` [Compound 28] as the compound, how does the pIC50 read?
Answer: 8.52

Question: With `C[C@H]1CN(C2COC2)CCN1c1ccc(Nc2cc(-c3ccnc(-n4cnn5c6c(cc5c4=O)CC(C)(C)C6)c3CO)cn(C)c2=O)nc1` [Compound 63] as the compound, how does the pIC50 read?
Answer: 8.10

Question: `C[C@H]1CN(C)CCN1c1ccc(Nc2cc(-c3ccnc(-n4ccn5c6c(cc5c4=O)CC(C)(C)C6)c3CO)cn(C)c2=O)nc1` [Compound 26] was tested. Which pIC50 did it give?
Answer: 8.15

Question: How did the pIC50 turn out when `C[C@H]1CN(C2COC2)CCN1c1ccc(Nc2cc(-c3ccnc(-n4ccn5c6c(cc5c4=O)CCC(F)(F)C6)c3CO)cn(C)c2=O)nc1` [Compound 56] was run?
Answer: 7.70

Question: With `C[C@H]1CN(C2COC2)CCN1c1ccc(Nc2cc(-c3ccnc(-n4ccn5c6c(cc5c4=O)CC(C)(C)C6)c3CO)n[nH]c2=O)nc1` [Compound 49] as the compound, how does the pIC50 read?
Answer: 8.22

Question: With `C[C@H]1CN(C2COC2)CCN1c1ccc(Nc2cc(-c3ccnc(-n4ccn5c6c(cc5c4=O)CCC6)c3CO)cn(C)c2=O)nc1` [Compound 64] as the compound, how does the pIC50 read?
Answer: 7.70

Question: With `C[C@H]1CN(C2COC2)CCN1c1ccc(Nc2cc(-c3ccnc(-n4ccn5c(cc6ccccc65)c4=O)c3CO)cn(C)c2=O)nc1` [Compound 74] as the compound, how does the pIC50 read?
Answer: 7.77

Question: How did the pIC50 turn out when `C[C@H]1CN(C2COC2)CCN1c1cnc(Nc2cc(-c3ccnc(-n4ccn5c6c(cc5c4=O)CC(C)(C)C6)c3CO)cn(C)c2=O)nc1` [Compound 44] was run?
Answer: 7.66

Question: With `COCCN1CCN(c2ccc(Nc3cc(-c4ccnc(-n5ccn6c7c(cc6c5=O)CC(C)(C)C7)c4CO)cn(C)c3=O)nc2)[C@@H](C)C1` [Compound 8] as the compound, how does the pIC50 read?
Answer: 7.92

Question: With `C[C@@H]1CN(c2ccc(Nc3cc(-c4ccnc(-n5ccn6c7c(cc6c5=O)CC(C)(C)C7)c4CO)cn(C)c3=O)nc2)[C@@H](C)CN1C1COC1` [Compound 27] as the compound, how does the pIC50 read?
Answer: 8.15

Question: `CCn1cc(Nc2cc(-c3ccnc(-n4ccn5c6c(cc5c4=O)CC(C)(C)C6)c3CO)cn3ncnc23)nn1` [Compound 71] was tested. Which pIC50 did it give?
Answer: 8.22

Question: With `C[C@@H]1CN(c2ccc(Nc3cc(-c4ccnc(-n5ccn6c7c(cc6c5=O)CCC7)c4CO)cn(C)c3=O)nc2)[C@@H](C)CN1C1COC1` [Compound 2, 2-(5-((5-((2S,5R)-2,5-dimethyl-4-(oxetan-3-yl)piperazin-1-yl)pyridin-2-yl)amino)-3′-(hydroxymethyl)-1-methyl-6-oxo-1,6-dihydro-[3,4′-bispyridin]-2′-yl)-7,8-dihydro-2H-cyclopenta[4,5]pyrrolo[1,2-a]pyrazin-1(6H)-one] as the compound, how does the pIC50 read?
Answer: 8.05

Question: With `COCCN(C)c1ccc(Nc2cc(-c3ccnc(-n4ccn5c6c(cc5c4=O)CC(C)(C)C6)c3CO)cn(C)c2=O)nc1` [Compound 50] as the compound, how does the pIC50 read?
Answer: 7.62

Question: With `Cn1cc(-c2ccnc(-n3ccn4c5c(cc4c3=O)CC(C)(C)C5)c2CO)cc(Nc2ccc(N3CCN(C4COC4)CC3)cn2)c1=O` [Compound 9] as the compound, how does the pIC50 read?
Answer: > 9.00

Question: With `C[C@H]1CN(C2COC2)CCN1c1cnc(Nc2cc(-c3ccnc(-n4ccn5c6c(cc5c4=O)CC(C)(C)C6)c3CO)cn(C)c2=O)cn1` [Compound 43] as the compound, how does the pIC50 read?
Answer: 8.05

Question: `C[C@H]1CN(C2COC2)CCN1c1ccc(Nc2cc(-c3ccnc(-n4ncn5c6c(cc5c4=O)CC(C)(C)C6)c3CO)cn(C)c2=O)nc1` [Compound 79] was tested. Which pIC50 did it give?
Answer: > 9.00

Question: With `C[C@H]1CN(C2COC2)CCN1c1ccc(Nc2cc(-c3ccnc(-n4ccn5c(c(F)c6cc(F)ccc65)c4=O)c3CO)cn(C)c2=O)nc1` [Compound 60] as the compound, how does the pIC50 read?
Answer: 8.40

Question: With `C[C@H]1CN(C2COC2)CCN1c1ccc(Nc2cc(-c3ccnc(-n4ccn5c(c(F)c6ccccc65)c4=O)c3CO)cn(C)c2=O)nc1` [Compound 57] as the compound, how does the pIC50 read?
Answer: 8.22

Question: How did the pIC50 turn out when `CC1CCc2cc3c(=O)n(-c4nccc(-c5cc(Nc6ccc(N7CCN(C8COC8)C[C@@H]7C)cn6)c(=O)n(C)c5)c4CO)ccn3c2C1` (mixture of isomers) [Compound 78] was run?
Answer: 8.10

Question: How did the pIC50 turn out when `C[C@H]1CN(C2COC2)CCN1c1ccc(Nc2cc(-c3ccnc(-n4ccn5c6c(cc5c4=O)CC(F)(F)CC6)c3CO)cn(C)c2=O)nc1` [Compound 58] was run?
Answer: 8.10

Question: With `Cn1cc(-c2ccnc(-n3ccn4c5c(cc4c3=O)CC(C)(C)C5)c2CO)cc(Nc2cn(CCF)nn2)c1=O` [Compound 31] as the compound, how does the pIC50 read?
Answer: 8.05

Question: How did the pIC50 turn out when `C[C@H]1CN(C2COC2)CCN1c1ccc(Nc2cc(-c3ccnc(-n4ccn5c(cc6cc(F)ccc65)c4=O)c3CO)cn(C)c2=O)nc1` [Compound 75] was run?
Answer: 7.96

Question: `C[C@H]1CN(C2COC2)CCN1c1ccc(Nc2cc(-c3ccnc(-n4ccn5c6c(cc5c4=O)CC(C)(C)C6)c3CO)cn3c(F)cnc23)nc1` [Compound 23] was tested. Which pIC50 did it give?
Answer: 7.36

Question: How did the pIC50 turn out when `CN1CCN(C(=O)c2ccc(Nc3cc(-c4ccnc(-n5ccn6c7c(cc6c5=O)CC(C)(C)C7)c4CO)cn(C)c3=O)nc2)CC1` [Compound 48] was run?
Answer: 8.40

Question: `C[C@H]1CN(C2COC2)CCN1c1ccc(Nc2cc(-c3ccnc(-n4ccn5c6c(cc5c4=O)CC(C)(C)C6)c3CO)cn3ncnc23)nc1` [Compound 21] was tested. Which pIC50 did it give?
Answer: 8.10

Reference: patent publication US11478474B2, “2-(3′-(hydroxymethyl)-1-methyl-5-((5-(2-methyl-4-(oxetan-3-yl)piperazin-1-yl)pyridin-2-yl)amino)-6-oxo-1,6-dihydro-[3,4′-bipyridin]-2′-yl)-7,7-dimethyl-7,8-dihydro-2H-cyclopenta[4,5]pyrrolo[1,2-a]pyrazin-1(6H)-one as a BTK inhibitor” (HUTCHISON MEDIPHARMA LIMITED, priority 2020, dated 2022)
